Test results from patent US20110189675A1, “Method For Administering Anticoagulation Therapy” (Marshfield Clinic, priority 2007, published 2011).

Assays:
[1] = Pooled regression models of stable warfarin dose versus CYP4F2 rs2108622 genotype, three Caucasian cohorts; format: in vivo, human
Source text: Therefore, we conducted multiple regression analyses only on the *1 genotypes (n=1009), and used the observed mean dose (log scale) as the predicted value for those with only non-wild CYP2C9 alleles (*2/*2, *2/*3, and *3/*3, n=42). Accordingly, our models that include genetic variables are composites of multiple regression and simple mean-based estimation approaches.
To assess the relative contribution of clinical and genetic factors, three models were developed using different sets of potential predictor variables: clinical factors only (gender, age, body surface area, and target international normalized ratio), clinical factors plus CYP2C9 and VKORC1, and clinical factors CYP2C9, VKORC1, and rs2108622. A modified step-down approach^29 was used, starting with a “full” model which included all potential predictors pertinent to that model, effects to allow the three study sites to differ, two-factor interactions (including those by site), and quadratic terms for age, body surface area, and target international normalized ratio. […] The regression models were finalized after evaluating residuals and excluding cases with large residuals as outliers (|Studentized Residual|>3).
The explanatory power for the three final models was assessed graphically and by using the adjusted r-squared (R^2adj). The R^2adj statistic measures the proportion of the total variability explained by the model with adjustment for the number of parameters in the model. The statistic was directly calculated to use all cases under analysis by pooling across both parts of the composite models and by applying the final regression model to any outliers dropped when estimating the parameters in the regression models.

[2] = Stable therapeutic warfarin dose by CYP2C9, VKORC1 and rs2108622 (CYP4F2) genotype, 424 subjects; format: in vivo, human
Source text: The initial cohort was recruited at Marshfield Clinic, a multi-specialty group practice in Wisconsin as described.^6, 16 Patients were excluded from the study if they were known to have cancer, renal or hepatic insufficiency, or congestive heart failure.
The targeted human DMET 1.0 assay (Affymetrix, Inc, Santa Clara, Calif.) utilizes molecular inversion probes and GeneChip universal tag arrays to target 1228 single nucleotide polymorphisms (SNP) within 170 genes for metabolic enzymes and transport and regulatory proteins (Table 2).
The laboratory protocol followed the standard process described in the Targeted Genotyping System User Guide^25 except for a preliminary polymerase chain reaction (PCR)-amplification step aimed at resolving genotypes from 29 SNPs in regions containing pseudogenes and close homologues. GeneChip Targeted Genotyping Analysis software was used to make genotype calls and generate QC metrics including call rates, average signal, cluster quality, Hardy-Weinberg equilibrium, and reproducibility. […] Genotypes represented by the remaining 1217 SNP assays were called according to either predefined boundaries (derived from historical training sets) or dynamic clustering using the current data set. […] The remaining polymorphisms target rare mutations or SNPs prevalent in other racial groups.
VKORC1 genotypes were determined on 436 Marshfield Clinic samples as described^6 and on the remaining 61 samples using Invader® chemistry in a laboratory test developed with analyte specific reagents manufactured by Third Wave Technologies (TWT, Madison, Wis.). The laboratory developed assay used analyte-specific reagents that detect CYP2C9*2, CYP2C9*3, and VKORC1 (position −1639).^26

In the case of `CC(=O)CC(c1ccccc1)c1c(O)c2ccccc2oc1=O` (stereo not shown) [warfarin], the “increase in warfarin dose with each T allele (CYP4F2 effect, final pooled model)” value (“increase in warfarin dose” below) ([1]; Marshfield) is reported as 12.8%, the “absolute contribution of CYP4F2 to stable warfarin dose” value ([1]; Marshfield cohort) is reported as 26% and the “increase in warfarin dose” value ([1]; University of Florida) is reported as 6.8%. For the same molecule, the “increase in warfarin dose” value ([1]; Washington University in St. Louis) was 3.8%, the “absolute contribution of CYP4F2 to stable warfarin dose” value ([1]; Washington University in St. Louis cohort) was 8% and the “difference in warfarin dose requirement, two TT alleles versus two CC alleles of CYP4F2 rs2108622” value ([1]; pooled analyses, three Caucasian cohorts stabilized on warfarin) was “about 1 mg/day”. The “Geometric Mean warfarin dose” value ([2]; CYP2C9 *1/*1, VKORC1 CC, rs2108622 CC, N=13) was 20.0 mg/week, the “Geometric Mean warfarin dose” value ([2]; CYP2C9 *1/*1, VKORC1 CC, rs2108622 CT, N=18) was 21.1 mg/week and the “Geometric Mean warfarin dose” value ([2]; CYP2C9 *1/*1, VKORC1 CC, rs2108622 TT, N=2) was 34.5 mg/week. The “Geometric Mean warfarin dose” value ([2]; CYP2C9 *1/*1, VKORC1 CG, rs2108622 CC, N=68) was 29.6 mg/week, the “Geometric Mean warfarin dose” value ([2]; CYP2C9 *1/*1, VKORC1 CG, rs2108622 CT, N=46) was 31.9 mg/week and the “Geometric Mean warfarin dose” value ([2]; CYP2C9 *1/*1, VKORC1 CG, rs2108622 TT, N=12) was 37.9 mg/week. The “Geometric Mean warfarin dose” value ([2]; CYP2C9 *1/*1, VKORC1 GG, rs2108622 CC, N=64) was 39.5 mg/week, the “Geometric Mean warfarin dose” value ([2]; CYP2C9 *1/*1, VKORC1 GG, rs2108622 CT, N=41) was 45.1 mg/week and the “Geometric Mean warfarin dose” value ([2]; CYP2C9 *1/*1, VKORC1 GG, rs2108622 TT, N=8) was 47.3 mg/week. The “Geometric Mean warfarin dose” value ([2]; CYP2C9 *1/*2, VKORC1 CC, rs2108622 CC, N=3) was 16.6 mg/week, the “Geometric Mean warfarin dose” value ([2]; CYP2C9 *1/*2, VKORC1 CC, rs2108622 CT, N=5) was 19.6 mg/week and the “Geometric Mean warfarin dose” value ([2]; CYP2C9 *1/*2, VKORC1 CC, rs2108622 TT, N=1) was 17.5 mg/week. For the same molecule, the “Geometric Mean warfarin dose” value ([2]; CYP2C9 *1/*2, VKORC1 CG, rs2108622 TT, N=5) was 31.0 mg/week, the “Geometric Mean warfarin dose” value ([2]; CYP2C9 *1/*2, VKORC1 GG, rs2108622 CC, N=13) was 29.7 mg/week and the “Geometric Mean warfarin dose” value ([2]; CYP2C9 *1/*2, VKORC1 GG, rs2108622 CT, N=17) was 34.1 mg/week. For the same molecule, the “Geometric Mean warfarin dose” value ([2]; CYP2C9 *1/*3, VKORC1 CC, rs2108622 CT, N=2) was 21.3 mg/week, the “Geometric Mean warfarin dose” value ([2]; CYP2C9 *1/*3, VKORC1 CG, rs2108622 CC, N=13) was 21.5 mg/week and the “Geometric Mean warfarin dose” value ([2]; CYP2C9 *1/*3, VKORC1 GG, rs2108622 CC, N=5) was 22.3 mg/week. The “Geometric Mean warfarin dose” value ([2]; CYP2C9 *1/*3, VKORC1 GG, rs2108622 TT, N=3) was 34.5 mg/week, the “Geometric Mean warfarin dose” value ([2]; CYP2C9 *2/*2, VKORC1 CG, rs2108622 CC, N=1) was 22.0 mg/week and the “Geometric Mean warfarin dose” value ([2]; CYP2C9 *2/*2, VKORC1 CG, rs2108622 CT, N=1) was 28.0 mg/week. The “Geometric Mean warfarin dose” value ([2]; CYP2C9 *2/*2, VKORC1 CG, rs2108622 TT, N=1) was 35.0 mg/week, the “Geometric Mean warfarin dose” value ([2]; CYP2C9 *2/*2, VKORC1 GG, rs2108622 CC, N=1) was 18.5 mg/week and the “Geometric Mean warfarin dose” value ([2]; CYP2C9 *2/*2, VKORC1 GG, rs2108622 CT, N=1) was 37.5 mg/week. For the same molecule, the “Geometric Mean warfarin dose” value ([2]; CYP2C9 *2/*2, VKORC1 GG, rs2108622 TT, N=1) was 35.0 mg/week, the “Geometric Mean warfarin dose” value ([2]; CYP2C9 *2/*3, VKORC1 CC, rs2108622 CC, N=1) was 20.0 mg/week and the “Geometric Mean warfarin dose” value ([2]; CYP2C9 *2/*3, VKORC1 CG, rs2108622 CT, N=1) was 22.5 mg/week. For the same molecule, the “Geometric Mean warfarin dose” value ([2]; CYP2C9 *2/*3, VKORC1 CG, rs2108622 TT, N=1) was 15.0 mg/week, the “Geometric Mean warfarin dose” value ([2]; CYP2C9 *2/*3, VKORC1 GG, rs2108622 CC, N=3) was 15.3 mg/week and the “Geometric Mean warfarin dose” value ([2]; CYP2C9 *3/*3, VKORC1 CG, rs2108622 CC, N=1) was 6.5 mg/week. For the same molecule, the “Geometric Mean warfarin dose” value ([2]; CYP2C9 *3/*3, VKORC1 CG, rs2108622 CT, N=1) was 4.5 mg/week.
